Test results reported in patent US12600940B2, “Strains and processes for single cell protein or biomass production” (priority 2019, dated 2026).
≈ marks a conversion by molar mass, not a printed value.

How the values were obtained:
VTT-E-193585 strain [1] = test: Antibiotic susceptibility (MIC), CLSI M07 broth microdilution / agar dilution; assay type: cell-based, Xanthobacter sp.; conditions: VTT-E-193585, 48 h ± 1 h, aerobic, +35±2° C., cation-adjusted Mueller Hinton Broth, fosfomycin by agar dilution; for MIC: read-out: Minimum Inhibitory Concentration (MIC)
VTT-E-193585 strain [2] = test: as above; assay type: cell-based, Xanthobacter sp.; conditions: comparison of MIC values of Table 5
Protocol: (§1) Escherichia coli ATCC 25922 was used as quality control strain and it was incubated in aerobic conditions, at +35±2° C. for 18±2 hours.

[3] = test system: Escherichia coli ATCC 25922; test: Antibiotic susceptibility (MIC), quality control strain; assay type: cell-based; conditions: E. coli ATCC 25922, 18 h ± 2 h, aerobic, +35±2° C.; for MIC: Escherichia coli, ATCC25922, read-out: Minimum Inhibitory Concentration (MIC)
Protocol: as §1

| Compound | MIC (VTT-E-193585 strain [1]) [µg/mL] | MIC for VTT-E-193585 compared with E. coli ATCC 25922 (VTT-E-193585 strain [2]) | MIC [3] [µg/mL] | Minimum Inhibitory Concentration (MIC) (VTT-E-193585 strain [1]) [µg/mL] | Minimum Inhibitory Concentration (MIC) [3] [µg/mL] |
| --- | --- | --- | --- | --- | --- |
| CC1(C)S[C@@H]2[C@H](NC(=O)[C@H](N)c3ccccc3)C(=O)N2[C@H]1C(=O)O [Ampicillin, ampicillin] | 16 (≈ 45.8 µM) | higher | 8 (≈ 22.9 µM) | – | – |
| C[C@@H]1O[C@@H]1P(=O)(O)O [Fosfomycin, fosfomycin] | 32 (≈ 232 µM) | higher | 0.5 (≈ 3.62 µM) | – | – |
| NC[C@H]1O[C@H](O[C@H]2[C@H](O)[C@@H](O[C@H]3O[C@H](CO)[C@@H](O)[C@H](N)[C@H]3O)[C@H](N)C[C@@H]2N)[C@H](O)[C@@H](O)[C@@H]1O [Kanamycin, kanamycin] | 2 (≈ 4.13 µM) | – | 4 (≈ 8.26 µM) | – | – |
| [H]/N=C(/N)N[C@H]1[C@H](O)[C@@H](O)[C@H](O[C@@H]2O[C@@H](C)[C@](O)(C=O)[C@H]2O[C@@H]2O[C@@H](CO)[C@H](O)[C@@H](O)[C@@H]2NC)[C@@H](N/C(N)=N\[H])[C@@H]1O [Streptomycin, streptomycin] | 0.5 (≈ 0.86 µM) | lower or comparable | 4 (≈ 6.88 µM) | – | – |
| CN(C)[C@@H]1C(O)=C(C(N)=O)C(=O)[C@@]2(O)C(O)=C3C(=O)c4c(O)cccc4[C@@](C)(O)[C@H]3C[C@@H]12 [Tetracycline, tetracycline] | 0.25 (≈ 0.563 µM) | – | 1 (≈ 2.25 µM) | – | – |
| colistin | – | higher | – | 4 | 2 |
| gentamicin | – | lower or comparable | – | 0.5 | 0.5 |
